“Also recorded” adds a separate entry of the source.
Experiments:
[1] = molecular target: 5-HT2A receptor (Homo sapiens, UniProt P28223); settings: cited from earlier work
[2] = system: CACNA1Atot/tot mice (tottering mice); experiment: Stress-induced dystonia in tottering mice in open field box (attack event number, dystonia score); format: in vivo; settings: for degree of relaxation of dystonia (number of dystonia events, dystonia score): FIGS. 3B, 3C, i.p., MDL100907 1 or 2 mg/kg, pimavanserin 1.5 mg/kg, ritanserin 2 mg/kg, glemanserin 2 mg/kg, nelotanserin 1 mg/kg, compared to the control group; for dystonia symptoms, dose-dependent effect: FIG. 3A
[3] = system: CACNA1Atot/tot mice (tottering mice); experiment: EMG cross correlation between tibialis anterior and gastrocnemius muscles of tottering mice; format: in vivo; settings: FIG. 1G; stressed environment; compared to control group
From the text: Electrodes (A-M system, USA) were surgically inserted into the gastrocnemius (GS) and tibialis anterior (TA) muscle for EMG recording, respectively. The electrodes were made using multiple strands of stainless-steel wires attached to each other and coated with Teflon. After shaving the hair of the right hind leg and behind the neck, a small incision was formed in the skin of the dorsal neck area. Four sets of recording electrodes were connected from the neck incision to the muscles under the skin. The EMG wires were wired under the skin and connected to a connector fixed to the skull. The low impedance of the exposed end of the wires allows the capture of electrical signals that have passed through relatively long distances (Pearson et al., J. Neurosci. Methods, 148 (1): 36-42, 2005). The EMG signals from the electrodes were sampled at 10 kHz and digitized with MiniDigi 1A (Axon Instrument, USA). Raw traces were analyzed using Clampfit 9.2 (Axon Instrument, USA). The cross correlation was calculated by using the standard of NeuroExplorer (Ver. 4, Nex Technologies, USA). […] The cross correlation indicates the degree of EMG overlap for a certain period in two muscles (TA and GS), and is a measure for judging whether the dystonia symptoms occur simultaneously in two muscles. […] That is, the greater the cross correlation value (Cross Corr.), which is the Y-axis value when the signal between each other is 0 ms (when contracted at the same time), the more severe the dystonia symptoms that the two muscles contract at the same time. The unit of the Y axis, AU, is a relative cross correlation value when the control is set to 1 which is an arbitrary unit.

[4] = system: calcium ion concentration in the cerebellum; experiment: Real-time GCaMP6 fluorescence measurement of calcium ion concentration in the cerebellum of tottering mice; format: in vivo; settings: FIG. 4E; stress environment
Experimental: In order to analyze the correlation between the degree of dystonia symptoms and the concentration of calcium ions in neurons, optogenetic model animals were prepared. Particularly, for a photometric system with a polarization-maintaining single-mode optical fiber, AAV2/9-CAG-FLEX-GCaMP6m (zadmehr et al., Cell, 164: 617-631, 2016) and AAV2/9-CMV-Cre (Gompf et al., Front. Behav. Neurosci. 9: 152, 2015) viral vectors were injected unilaterally into 0.25 μl each of the fastigial nucleus of the CACNA1A^tot/tot mouse through stereotaxic surgery. The virus injection was carried out 4 weeks before the experiment. […] For the fluorescence measurement, a TCSPC-based light measurement system (Becker & Hickel, Germany) was used.
The change in calcium signaling in the cerebellum is possible by transduction of a gene encoding the calcium sensor protein GCaMP6 into the cerebellum of the dystonia model mouse, and then measuring the intensity of fluorescence of the GCaMP6 protein bound to calcium ions. […] The present inventors performed real-time fluorescence analysis to analyze the correlation between dystonia symptoms and calcium ion concentration in nerve tissues in the topical transduction tottering mice prepared in Example 2. […] After the pulse laser irradiation, 509 nm wavelength fluorescence was measured using a TCSPC-based optical measurement system (Becker & Hickl, Germany). […]

[5] = system: CACNA1Atot/tot mice (tottering mice); experiment: Stress-induced dystonia in tottering mice in open field box (attack event number, dystonia score); format: in vivo; settings: FIG. 1F; i.p. 30 min before test; Way100135 10 mg/kg, MDL100907 1 mg/kg, ondansetron 1 mg/kg; open field box 30 min
Experimental: The 7-8 weeks old CACNA1Atot/tot mice (Fletcher, Cell, 87 (4): 607-617, 1996, The Jackson Laboratory, Stock No: 000544) were selected kept and dealt complied with the regulation (protocol number KA2015-05) of Institutional Animal Care and Use Committee of the Korea Advanced Institute of Science and Technology (KAIST). The mice remained freely accessible to water and feed, and the light-dark cycle was 12/12 hours. Behavioral tests were performed 4 weeks after the viral transduction. […]
The drugs were dissolved in physiological saline and administrated […] to the tottering animal prepared by the Examples 2 and kept in the controlled environment of 12/12 hour light-dark cycle. […] The behavior test was performed 30 minutes after drug administration, and the experimental animals were acclimated in the home for 30 minutes and moved to an open field box, they were exposed to a stressed environment by leaving them in the open field box for 30 min, and the symptoms of dystonia were measured. The symptoms of dystonia and its severity were calculated using a 5-point scale dystonia score as follows: 0=normal behavior, 1=abnormal motor behavior, no myotonic posture, 2=minor dyskinesia, showing dystonia-like psture when disturbed, 3=moderate motor disability, frequent spontaneous myotonic posture, 4=severe motor disability, and persistent myotonic posture.

Chain of 5-HT2A receptor (P28223 whole entry): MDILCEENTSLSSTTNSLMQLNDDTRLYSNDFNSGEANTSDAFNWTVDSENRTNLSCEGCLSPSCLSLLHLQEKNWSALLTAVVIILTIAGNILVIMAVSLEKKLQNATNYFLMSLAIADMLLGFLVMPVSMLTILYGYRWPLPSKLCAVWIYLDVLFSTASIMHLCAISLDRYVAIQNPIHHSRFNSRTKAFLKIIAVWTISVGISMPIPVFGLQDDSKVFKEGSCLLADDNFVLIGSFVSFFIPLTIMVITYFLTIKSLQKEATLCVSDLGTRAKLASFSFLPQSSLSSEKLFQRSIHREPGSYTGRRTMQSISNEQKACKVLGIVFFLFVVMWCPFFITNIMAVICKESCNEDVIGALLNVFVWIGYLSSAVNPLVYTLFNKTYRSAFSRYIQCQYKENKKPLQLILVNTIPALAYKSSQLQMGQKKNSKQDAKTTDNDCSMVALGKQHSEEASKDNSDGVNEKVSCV

Compound: COc1ccc(CC(=O)N(Cc2ccc(C)cc2)C2CCN(C)CC2)cc1 [AC-90179]
- Ki ([1]; 5-HT2A receptor): 2.1 ± 0.2 nM

Compound: OC(c1ccccc1)C1CCN(CCc2ccccc2)CC1 (stereo not shown) [Glemanserin]
- IC50 [1]: 6.5 ± 2 nM
- degree of relaxation of dystonia (number of dystonia events, dystonia score) [2]: showed no significant effect

Compound: OCCOCCN1CCN(C(c2ccccc2)c2ccc(Cl)cc2)CC1 (stereo not shown) [Hydroxyzine]
- IC50 [1]: 170 nM

Compound: COc1ccc(NC(=O)Nc2ccc(F)cc2F)cc1-c1c(Br)cnn1C [Nelotanserin]
- Ki ([1]; 5-HT2A receptor): 0.4 ± 0.07 nM
- degree of relaxation of dystonia (number of dystonia events, dystonia score) [2]: showed no dystonia paralysis

Compound: CC(CCN1CCN(c2ccc(F)cc2)CC1)NC(=O)c1cccnc1 (stereo not shown) [Niaprazine]
- Ki ([1]; 5-HT2A receptor): 75 nM
- pKi ([1]; 5-HT2A receptor): 7.61 ± 0.18

Compound: CC(C)COc1ccc(CNC(=O)N(Cc2ccc(F)cc2)C2CCN(C)CC2)cc1 [Pimavanserin]
- degree of relaxation of dystonia (number of dystonia events, dystonia score) [2]: showed no dystonia paralysis; also recorded: reduced symptoms of dystonia compared to Glemanserin

Compound: Cc1nc2sccn2c(=O)c1CCN1CCC(=C(c2ccc(F)cc2)c2ccc(F)cc2)CC1 [Ritanserin]
- degree of relaxation of dystonia (number of dystonia events, dystonia score) [2]: showed no dystonia paralysis

Compound: COc1cccc([C@H](O)C2CCN(CCc3ccc(F)cc3)CC2)c1OC [Volinanserin]
- EMG cross correlation (TA and GS muscles) [3]: the correlation disappeared
- increase in GCaMP6 fluorescence signal (ΔF/F) in cerebellum after moving to open field box [4]: reduced to the level when staying at the home
- dystonia symptoms, dose-dependent effect ([2]; 0.1 mg/kg): dystonia symptoms were significantly suppressed
- dystonia symptoms, dose-dependent effect ([2]; 2 mg/kg rather than 1 mg/kg): symptoms were slightly alleviated
- degree of relaxation of dystonia (number of dystonia events, dystonia score) [2]: showed no dystonia paralysis; also recorded: reduced symptoms of dystonia compared to Glemanserin

Compound: COc1ccccc1N1CCN(CC(C(=O)NC(C)(C)C)c2ccccc2)CC1 (stereo not shown) [Way100135]
- symptoms of dystonia (attack event number and muscle dysfunction index) [5]: did not reduce symptoms of dystonia at all
- EMG cross correlation (TA and GS muscles) [3]: there is no difference

Compound: Cc1nccn1CC1CCc2c(c3ccccc3n2C)C1=O (stereo not shown) [ondansetron]
- symptoms of dystonia (attack event number and muscle dysfunction index) [5]: did not reduce symptoms of dystonia at all
- EMG cross correlation (TA and GS muscles) [3]: there is no difference

Source: patent US20200352950A1, “Novel method of treating dystonia” (KOREA ADVANCED INSTITUTE OF SCIENCE AND TECHNOLOGY, priority 2017, published 2020)
